Source: patent publication US20050232864A1, “Method for phenotyping using nmr spectroscopy” (priority 2002, published 2005)

Assay: Pharmacokinetic parameters of CBZ in rabbit plasma by DNP-NMR compared with LC-MS (Example 3)
Assay type: in vivo
Details: single oral dose 40 mg/kg CBZ
Method: Samples were collected at 8 time points over a period of 24 hours, at the following times: 0 min., 15 min., 30 min., 1 hour, 2 hours, 4 hours, 8 hours and 24 hours. 2 ml blood was withdrawn from the marginal ear vein of the rabbit. Plasma was extracted from the blood and divided into two samples, one for LC-MS analysis and one for DNP and NMR analysis (˜0.5 ml for each).
Rabbit plasma (400 μl) in a 2 ml vial was treated with acetonitrile (750 μl) and sonicated with a sonication probe for 15 sec. Another portion of acetonitrile (750 μl) was added to the vial so as to rinse the probe, the vial was closed, agitated briefly on a whirly mixer and centrifuged at 14 000 rev/min for about 1 min. The supernatant was transferred into a fresh vial in portions and evaporated in a ThermoSavant SPD 111V speedvac. Towards the end of the evaporation, 20 μl of an aqueous stock solution of EDTA (1 μg/μl) was added and the mixture was evaporated to dryness. 50 μl of the stock solvent as described below was added to the solid residue, and the added weight was noted. The sample was sonicated for 15 min to dissolve the residue and centrifuged to force the whole sample to the bottom of the vial. The vial was weighed together with a pipette tip and the sample was collected into the pipette tip and dispensed drop wise into liquid nitrogen. The used vial and pipette tip was weighed again to assess the actual weight of the sample. The cooled sample pellets were placed in a sample cup and administered into a DNP-polariser.
The volume of the radical is not accounted for in the calculation.
The sample was dissolved in heated (60° C.) methanol-D4 containing 75 μg EDTA per 7.0 ml of methanol. The dissolved sample was collected in a 10 mm NMR-tube fitted with a NMR-spinner and kept in a portable magnetic field (12 mT). The sample was moved from the polariser into the NMR magnet as expediently as possible making sure that the tube is protected in the portable magnetic field during the transport.
A 1D ^13C NMR-spectrum was acquired with a 10 mm Varian direct detection probe at 100.393 MHz (400 MHz ^1H). […] The NMR acquisition parameters were a spectral width of 40 kHz (400 ppm), an acquisition time of 2.5 s, and a pulse angle of 90. […] The spectrum was acquired 5 s after dissolution was initiated.
First, the reference ^13C-NMR signal from HP001 was analysed by selecting one Lorentzian line shape model function to describe the signal. The algorithm calculates phase, amplitude, damping (or line width in frequency domain) and frequency. The first order phase was set fixed at zero. […] All phases of the peaks were zero with respect to the main phase and a Lorentzian line shape model function was assumed. […] The first order phase was fixed at zero, the zero order phase was determined by the algorithm.
0.11 μg, 0.33 μg, 0.5 μg, 1.0 μg, 1.5 μg, and 2.0 μg were spiked into […] rabbit plasma, incubated at 37° C. and prepared as described in the section on sample preparation.

[1] = Table 2, footnote: E-CBZ levels calculated, DNP-NMR
[2] = Table 2, footnote: E-CBZ levels calculated, LC-MS

AUC0.5-8h (Table 1, CBZ levels, DNP-NMR): 52 µM·h
Cmax (Table 1, CBZ levels, DNP-NMR): 12 µM
AUC0.5-8h (Table 1, CBZ levels, LC-MS): 60 µM·h
Cmax (Table 1, CBZ levels, LC-MS): 13.3 µM
AUC0.5-8h [1]: 52 µM·h
Cmax [1]: 12 µM
AUC0.5-8h [2]: 60 µM·h
Cmax [2]: 13.3 µM
Substance: carbamazepine [CBZ]
